The values below come from patent US7625878B2, “Sulfoalkyl ether-alkyl ether cyclodextrin derivatives” (The University of Kansas, priority 2003, dated 2009).

Common to all, as to format: physicochemical
Data set [1] is described as follows: binding constant K1:1 of inclusion complex with Nifedipine. The following applies: substrate Nifedipine, value (spread). On the procedure:
(§1) The following tables detail some of the SAE-AE-CD's according to the invention. These products were made according to the examples below. The table indicates the inclusion complexes formed with the indicated drugs and cyclodextrins as well as their corresponding linear binding constants (K1:1) determined at 25° C.
(§2) Excess amount of drug was added to a CD-containing aqueous solution (concentration ranging from 0 to 0.10M). […] The suspension was centrifuged for 5 min. at 3000 rpm (Dynac™ centrifuge, Clay Adams, Parsippany, N.J.). A 20 μL sample was obtained from the supernatant and diluted to 1-5-ml with glass double distilled water.
(§3) The mobile phase(s) was chosen in accordance with the properties of the analyzed drug and its behavior in interacting with the chromatographic support. Suitable exemplary conditions for specific drugs are detailed in the table below.
(§4) The following general procedure was used to determine the extent of inclusion complex formation for an active agent/cyclodextrin derivative combination. The change in absorbance due to inclusion complex formation for a drug was monitored. The change in absorbance value as a function of total ligand concentration at a fixed concentration of substrate was measured. The wavelength for analysis was chosen appropriately depending on the analyzed drug. […]

Data set [2] can be described thus: binding constant K1:1 of inclusion complex with α-Me-Prednisolone. The settings on record: substrate α-Me-Prednisolone, value (spread). On the procedure:
as §1, §2, §3, §4

The nature of data set [3]: binding constant K1:1 of inclusion complex with Camptothecin. The settings on record: substrate Camptothecin, value (spread). On the procedure:
as §1, §2, §3

Data set [4] can be described thus: binding constant K1:1 of inclusion complex with Nitrendipine. The following applies: substrate Nitrendipine, value (spread). The protocol: as §1
(§5) The following general procedure was used to determine the extent of inclusion complex formation for an active agent/cyclodextrin derivative combination. The change in absorbance due to inclusion complex formation for a drug was monitored. The change in absorbance value as a function of total ligand concentration at a fixed concentration of substrate was measured. The wavelength for analysis was chosen appropriately depending on the analyzed drug. The analysis was performed using a Perkin Elmer double beam UV/Vis Lamda 6 instrument equipped with a data manager software and water jacketed multicell attachment. A circulating water bath was used to provide constant temperature during experiments. The data were linearized using the method described by Foster et al.: R. Foster, D. L. Hammich, A. A Wardley (Interaction of Polynitro compounds with Aromatic Hydroquinones and Bases. Part III. A New Method for Determining the Association Constants for Certain Interactions between Nitro Compounds and Bases in Solution. J. Chem. Soc. (1953) 3817-20). […]

Data set [5] in a line: binding constant K1:1 of inclusion complex with Nimodipine. The following applies: substrate Nimodipine, value (spread). The protocol: as §1, §5
Data set [6] in a line: binding constant K1:1 of inclusion complex with Prednisolone. The following applies: substrate Prednisolone, value (spread). The protocol: as §1, §5
Data set [7] is described as follows: binding constant K1:1 of inclusion complex with Clotrimazole. The settings on record: substrate Clotrimazole, value (spread). The protocol:
as §1, §5

Data set [8] is described as follows: binding constant K1:1 of inclusion complex with Triamcinolone. The settings on record: substrate Triamcinolone, value (spread). The protocol: as §1, §5

In the case of `OC[C@H]1O[C@@H]2O[C@H]3[C@H](O)[C@@H](O)[C@@H](O[C@H]4[C@H](O)[C@@H](O)[C@@H](O[C@H]5[C@H](O)[C@@H](O)[C@@H](O[C@H]6[C@H](O)[C@@H](O)[C@@H](O[C@H]7[C@H](O)[C@@H](O)[C@@H](O[C@H]8[C@H](O)[C@@H](O)[C@@H](O[C@H]1[C@H](O)[C@H]2O)O[C@@H]8CO)O[C@@H]7CO)O[C@@H]6CO)O[C@@H]5CO)O[C@@H]4CO)O[C@@H]3CO` [β-CD, β-cyclodextrin], the “K1:1 25° C.” value in data set [1] was 121.9(35).

With `OC[C@H]1O[C@@H]2O[C@H]3[C@H](O)[C@@H](O)[C@@H](O[C@H]4[C@H](O)[C@@H](O)[C@@H](O[C@H]5[C@H](O)[C@@H](O)[C@@H](O[C@H]6[C@H](O)[C@@H](O)[C@@H](O[C@H]7[C@H](O)[C@@H](O)[C@@H](O[C@H]8[C@H](O)[C@@H](O)[C@@H](O[C@H]9[C@H](O)[C@@H](O)[C@@H](O[C@H]1[C@H](O)[C@H]2O)O[C@@H]9CO)O[C@@H]8CO)O[C@@H]7CO)O[C@@H]6CO)O[C@@H]5CO)O[C@@H]4CO)O[C@@H]3CO` [γ-CD, γ-cyclodextrin], the “K1:1 25° C.” value is 3038(269) in data set [2]; 73 M⁻¹ in data set [3]; 2508(59) in data set [4]; 1780(190) in data set [5]; 1416.1(162) in data set [1]; 3300.42(21) in data set [6]. The figures for the “K1:1 25° C.” value in data set [7] and in data set [8] were 1015(30) and 9769 (560), respectively.
